Patent US20190125745A1, “TREATMENT AND DIAGNOSIS OF CANCER” (Rgenix, Inc., priority 2014, published 2019)
Counter-ions that a name gives are not always drawn.

Experiments:
ApoE expression = ApoE expression by qRT-PCR in human melanoma cells
Experimental: (A-B) Parental MeWo cells were incubated in the presence of DMSO or GW3965 at the indicated concentrations. After 48 hours, total RNA was extracted, and the levels of ApoE (A) and DNAJA4 (B) were determined by qRT-PCR. n=3. (C) Cell invasion by 1×10^5 parental MeWo cells pre-treated with GW3965 or DMSO for 48 hours. n=6-7. p-values based on a one-sided student's t-test. […] (D) Endothelial recruitment by 5×10^4 parental MeWo cells pre-treated with GW3965 or DMSO for 48 hours. n=6-7. p-values based on a one-sided student's t-test. (E) Mice were fed with grain-based chow diet containing GW3965 (20 mg/kg) or a control diet. After 10 days, 4×10^4 parental MeWo cells were tail-vein injected into mice, and the mice were continuously fed with GW3965-containing chow or a control diet throughout the experiment.
(A-C) MeWo (A), HT-144 (B), and WM-266-4 (C) human melanoma cells were treated with GW3965 or T0901317 at the indicated concentrations for 48 hours, and the expression levels of ApoE were analysed by qRT-PCR. n=3. (D) Extracellular ApoE protein levels, quantified by ELISA, in serum-free conditioned media collected from HT-144 human melanoma cells treated with DMSO, GW3965, or T0901317 at 1 μM for 72 hours. n=3-4. […] (I-J) Relative ApoE expression, quantified by qRT-PCR, in MeWo (I) and HT-144 (J) cells transduced with a control shRNA or shRNAs targeting LXRα or LXRβ and subsequently treated with DMSO, GW3965, or T0901317 at 1 μM for 48 hours. n=3-9. (K) Extracellular ApoE protein levels, measured by ELISA, in serum-free conditioned media harvested from HT-144 cells transduced with a control shRNA or an shRNA targeting LXRα or LXRβ and treated with DMSO or GW3965 at 1 μM for 72 hours. n=3.
RNA was extracted from whole cell lysates using the Total RNA Purification Kit (17200, Norgen, Thorold, Canada). 600 ng of total RNA was then reverse transcribed into cDNA using the cDNA First-Strand Synthesis Kit (18080-051, Invitrogen), and quantitative real-time PCR amplification was performed as previously described (Pencheva et al., 2012) using an ABI Prism 7900HT Real-Time PCR System (Applied Biosystems, Austin, Tex.). […]
For every sample, 600 ng of RNA was reverse transcribed into cDNA using the cDNA First-Strand Synthesis kit (Invitrogen). […] Each reaction was carried out in quadruplicates, and ApoE mRNA expression levels were measured by quantitative real-time PCR amplification using an ABI Prism 7900HT Real-Time PCR System (Applied Biosystems). The relative ApoE expression was determined using the ΔΔCt method.

LXRβ = biological target: T1, LXRβ (Homo sapiens, UniProt P55055); assay: ligand sensing assay (LiSA), LXRβ; format: biochemical; conditions: hydrochloride
T1 sequence (P55055 1-460): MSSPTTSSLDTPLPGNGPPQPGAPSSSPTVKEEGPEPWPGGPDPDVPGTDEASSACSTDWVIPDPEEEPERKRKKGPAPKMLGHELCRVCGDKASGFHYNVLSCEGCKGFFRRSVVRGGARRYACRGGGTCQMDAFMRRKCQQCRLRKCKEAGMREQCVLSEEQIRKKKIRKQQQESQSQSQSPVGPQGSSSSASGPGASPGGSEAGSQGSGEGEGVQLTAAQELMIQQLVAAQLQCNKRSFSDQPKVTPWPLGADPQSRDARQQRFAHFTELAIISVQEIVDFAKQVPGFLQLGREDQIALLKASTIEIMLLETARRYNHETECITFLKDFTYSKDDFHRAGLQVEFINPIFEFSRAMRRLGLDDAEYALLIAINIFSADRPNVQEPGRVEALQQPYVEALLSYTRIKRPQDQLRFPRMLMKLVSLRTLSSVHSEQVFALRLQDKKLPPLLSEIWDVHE
From the text: As used herein, reference to the activity of an LXR agonist at LXRα and LXRβ refer to the activity as measured using the ligand sensing assay (LiSA) described in Spencer et al. Journal of Medicinal Chemistry 2001, 44, 886-897, incorporated herein by reference. […] For example, the methods of the invention can be performed using an LXRβ agonist having activity for LXRβ that is at least 3-fold greater than the activity of the agonist for LXRα, or having activity for LXRβ that is at least 10-fold greater than the activity of the agonist for LXRα, or having activity for LXRβ that is at least 100-fold greater than the activity of said agonist for LXRα, or having activity for LXRβ that is at least within 3-fold of the activity of the agonist for LXRα. The term “greater activity” in the LiSA assay refers to a lower EC50.

[1] = tested on: MeWo human melanoma cells; assay: Tail-vein lung metastatic colonization by MeWo cells in NOD Scid mice; format: in vivo; conditions: MeWo cells pre-treated 1 μM, 48 hours
Experimental: FIG. 6. LXR Agonism Suppresses Melanoma Metastasis to the Lung and Brain. (A) MeWo cells were pre-treated with DMSO or GW3965 (1 μM) for 48 hours and 4×10^4 cells were intravenously injected via the tail-vein into NOD Scid mice. Lung colonization was monitored by weekly bioluminescence imaging. Representative H&E-stained lungs correspond to the final day (d70) are shown. n=4-5. (B-C) Bioluminescence imaging of lung metastasis by 4×10^4 MeWo cells intravenously injected into NOD Scid mice that were fed a control chow or a chow containing GW3965 (20 mg/kg) or T0901317 (20 mg/kg) starting 10 days prior to cancer cell injection. Representative H&E-stained lungs correspond to final imaging day n=5-6. […] (H) Ex-vivo lung photon flux, determined by bioluminescence imaging, in NOD Scid mice that were administered a control chow or a chow containing GW3965 (100 mg/kg) for 1 month following the excision of size-matched (˜300-mm^3 in volume) subcutaneous melanoma tumors formed by 1×10^6 MeWo melanoma cells. […] Following initiation of metastases, detected by bioluminescence imaging on d42, mice were administered a control diet or a GW3965 diet (100 mg/kg) as indicated, and lung colonization progression was measured weekly. n=6. […]

## O=C(O)Cc1cccc(OCCCN(Cc2cccc(C(F)(F)F)c2Cl)CC(c2ccccc2)c2ccccc2)c1 [GW3965 108, 3-[3-[N-(2-Chloro-3-trifluoromethylbenzyl)-(2,2-diphenylethyl)amino]propyloxy] phenylacetic acid hydrochloride]
ApoE expression
  potency of inducing ApoE expression in vitro: potently induce
LXRβ
  greater activity for LXRβ compared to LXRα: 6 fold
LXRβ; row
  greater activity for LXRβ compared to LXRα: approximately 6 fold
[1]
  reduction in metastatic colonization capacity after pre-treatment of cells: more than 50 fold
